Results: ChEMBL document CHEMBL4813994, “Discovery of novel and potent PARP/PI3K dual inhibitors for the treatment of cancer” (Eur J Med Chem, 2021)

Columns and labels:
SW-620 = assay: Antiproliferative activity against human BRCA-2 proficient SW-620 cells assessed as reduction in cell growth incubated for 7 days by cell titer-glo assay; assay type: functional, cell-based; conditions: SW-620, 168 h
MDA-MB-231 = assay: Antiproliferative activity against human BRCA proficient MDA-MB-231 cells assessed as reduction in cell growth incubated for 7 days by cell titer-glo assay; assay type: functional, cell-based; conditions: MDA-MB-231, 168 h
HCC1937 = assay: Antiproliferative activity against human BRCA-1 deficient HCC1937 cells assessed as reduction in cell growth incubated for 7 days by cell titer-glo assay; assay type: functional, cell-based; conditions: HCC1937, 168 h
MDA-MB-468 [1] = assay: Antiproliferative activity against human BRCA proficient MDA-MB-468 cells assessed as reduction in cell growth incubated for 7 days by cell titer-glo assay; assay type: functional, cell-based; conditions: MDA-MB-468, 168 h
MDA-MB-468 [2] = assay: Antitumor activity against human MDA-MB-468 cells xenografted in BALB/c mouse assessed as tumor growth inhibition at 50 mg/kg, ip once daily administered for 32 days relative to control; assay type: functional; conditions: time 32 day
HCT-116 = assay: Antiproliferative activity against human BRCA-2 deficient HCT-116 cells assessed as reduction in cell growth incubated for 7 days by cell titer-glo assay; assay type: functional, cell-based; conditions: HCT-116, 168 h
MDA-MB-468 [3] = assay: Antitumor activity against human MDA-MB-468 cells xenografted in BALB/c mouse assessed as tumor growth inhibition at 50 mg/kg, ip administered for 32 days along with GDC-0980 relative to control; assay type: functional; conditions: time 32 day
[4] = biological target: Poly [ADP-ribose] polymerase 2 (Homo sapiens, UniProt Q9UGN5); assay: Inhibition of PARP2 (unknown origin) using biotin-NAD+ as substrate incubated for 1 hr by ELISA
Sequence of Poly [ADP-ribose] polymerase 2 (Q9UGN5 whole entry): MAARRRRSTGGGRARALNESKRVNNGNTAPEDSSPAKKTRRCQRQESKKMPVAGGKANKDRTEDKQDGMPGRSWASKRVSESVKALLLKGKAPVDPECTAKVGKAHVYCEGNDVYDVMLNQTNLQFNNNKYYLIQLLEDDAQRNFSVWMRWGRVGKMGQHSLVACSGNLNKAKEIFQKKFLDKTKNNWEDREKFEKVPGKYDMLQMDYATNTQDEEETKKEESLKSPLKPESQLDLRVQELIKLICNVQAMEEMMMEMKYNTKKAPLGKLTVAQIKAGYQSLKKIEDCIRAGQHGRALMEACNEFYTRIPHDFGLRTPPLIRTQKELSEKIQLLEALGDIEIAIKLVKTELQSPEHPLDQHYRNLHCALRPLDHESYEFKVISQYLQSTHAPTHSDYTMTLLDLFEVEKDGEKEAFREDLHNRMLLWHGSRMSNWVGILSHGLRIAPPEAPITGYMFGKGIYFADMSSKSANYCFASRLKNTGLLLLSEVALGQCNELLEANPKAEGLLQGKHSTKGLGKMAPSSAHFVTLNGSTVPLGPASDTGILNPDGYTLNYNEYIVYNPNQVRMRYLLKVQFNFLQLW

[5] = biological target: Serine/threonine-protein kinase mTOR (Homo sapiens, UniProt P42345); assay: Inhibition of mTOR (unknown origin)
[6] = biological target: Phosphatidylinositol 4,5-bisphosphate 3-kinase catalytic subunit beta isoform (Homo sapiens, UniProt P42338); assay: Inhibition of PI3Kbeta (unknown origin) using PIP2 as substrate measured after 1 hr by ADP-glo plus luminescence assay
Sequence of Phosphatidylinositol 4,5-bisphosphate 3-kinase catalytic subunit beta isoform (P42338 whole entry, canonical isoform): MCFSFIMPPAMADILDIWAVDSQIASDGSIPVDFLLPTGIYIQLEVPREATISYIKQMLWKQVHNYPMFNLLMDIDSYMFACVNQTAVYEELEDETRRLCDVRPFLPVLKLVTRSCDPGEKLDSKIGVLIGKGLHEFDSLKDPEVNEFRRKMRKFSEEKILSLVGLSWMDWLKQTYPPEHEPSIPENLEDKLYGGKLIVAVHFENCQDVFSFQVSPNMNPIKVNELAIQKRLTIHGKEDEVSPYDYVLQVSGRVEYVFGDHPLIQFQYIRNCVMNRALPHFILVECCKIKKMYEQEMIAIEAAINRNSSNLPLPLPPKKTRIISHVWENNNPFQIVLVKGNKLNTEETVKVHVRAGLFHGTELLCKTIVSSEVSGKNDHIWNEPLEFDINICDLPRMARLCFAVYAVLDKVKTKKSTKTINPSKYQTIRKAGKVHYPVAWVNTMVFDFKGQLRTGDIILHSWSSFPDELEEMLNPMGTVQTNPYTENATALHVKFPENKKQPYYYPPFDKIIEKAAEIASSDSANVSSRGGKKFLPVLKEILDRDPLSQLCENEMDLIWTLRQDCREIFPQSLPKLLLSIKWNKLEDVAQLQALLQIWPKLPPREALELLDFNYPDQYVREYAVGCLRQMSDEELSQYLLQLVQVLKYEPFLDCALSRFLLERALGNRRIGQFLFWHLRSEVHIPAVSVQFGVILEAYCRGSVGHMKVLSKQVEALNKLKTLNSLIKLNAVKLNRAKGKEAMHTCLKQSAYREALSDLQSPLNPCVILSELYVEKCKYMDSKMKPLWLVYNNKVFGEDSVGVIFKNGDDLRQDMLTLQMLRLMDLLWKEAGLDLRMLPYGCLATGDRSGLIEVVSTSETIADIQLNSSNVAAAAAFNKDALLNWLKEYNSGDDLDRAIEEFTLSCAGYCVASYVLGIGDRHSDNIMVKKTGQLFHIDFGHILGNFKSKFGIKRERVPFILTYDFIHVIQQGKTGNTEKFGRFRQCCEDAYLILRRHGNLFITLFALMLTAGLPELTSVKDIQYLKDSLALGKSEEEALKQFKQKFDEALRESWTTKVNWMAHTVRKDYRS

[7] = biological target: Poly [ADP-ribose] polymerase 1 (Homo sapiens, UniProt P09874); assay: Inhibition of PARP1 (unknown origin) using biotin-NAD+ as substrate incubated for 1 hr by ELISA
Sequence of Poly [ADP-ribose] polymerase 1 (P09874 whole entry, canonical isoform): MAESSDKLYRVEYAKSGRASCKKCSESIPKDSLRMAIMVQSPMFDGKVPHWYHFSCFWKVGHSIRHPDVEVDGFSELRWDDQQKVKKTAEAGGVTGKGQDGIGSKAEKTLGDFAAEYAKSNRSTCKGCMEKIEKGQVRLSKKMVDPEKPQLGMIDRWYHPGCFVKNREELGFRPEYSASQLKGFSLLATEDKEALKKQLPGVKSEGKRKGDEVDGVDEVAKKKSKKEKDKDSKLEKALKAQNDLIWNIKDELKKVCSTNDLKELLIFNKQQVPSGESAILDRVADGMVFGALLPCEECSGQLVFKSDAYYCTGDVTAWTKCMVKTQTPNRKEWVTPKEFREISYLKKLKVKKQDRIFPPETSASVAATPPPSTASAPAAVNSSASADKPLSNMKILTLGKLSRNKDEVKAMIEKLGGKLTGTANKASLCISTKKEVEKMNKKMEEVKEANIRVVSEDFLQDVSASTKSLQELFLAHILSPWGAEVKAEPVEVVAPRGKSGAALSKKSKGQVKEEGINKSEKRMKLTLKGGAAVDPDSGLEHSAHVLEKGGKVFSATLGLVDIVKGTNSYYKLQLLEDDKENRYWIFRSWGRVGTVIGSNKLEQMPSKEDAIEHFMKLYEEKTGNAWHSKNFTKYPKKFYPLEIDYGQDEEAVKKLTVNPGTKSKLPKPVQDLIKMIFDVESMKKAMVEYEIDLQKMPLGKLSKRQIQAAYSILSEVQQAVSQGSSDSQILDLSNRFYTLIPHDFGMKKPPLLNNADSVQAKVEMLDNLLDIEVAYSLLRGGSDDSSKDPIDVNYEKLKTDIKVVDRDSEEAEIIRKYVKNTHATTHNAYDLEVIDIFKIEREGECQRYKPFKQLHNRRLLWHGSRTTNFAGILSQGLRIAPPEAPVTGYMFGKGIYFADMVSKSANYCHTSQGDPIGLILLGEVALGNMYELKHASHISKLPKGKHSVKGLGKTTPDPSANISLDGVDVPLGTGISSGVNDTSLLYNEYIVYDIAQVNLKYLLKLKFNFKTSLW

[8] = biological target: Phosphatidylinositol 4,5-bisphosphate 3-kinase catalytic subunit alpha isoform (Homo sapiens, UniProt P42336); assay: Inhibition of PI3Kalpha (unknown origin) using PIP2 as substrate measured after 40 mins by ADP-glo plus luminescence assay
Sequence of Phosphatidylinositol 4,5-bisphosphate 3-kinase catalytic subunit alpha isoform (P42336 whole entry, canonical isoform): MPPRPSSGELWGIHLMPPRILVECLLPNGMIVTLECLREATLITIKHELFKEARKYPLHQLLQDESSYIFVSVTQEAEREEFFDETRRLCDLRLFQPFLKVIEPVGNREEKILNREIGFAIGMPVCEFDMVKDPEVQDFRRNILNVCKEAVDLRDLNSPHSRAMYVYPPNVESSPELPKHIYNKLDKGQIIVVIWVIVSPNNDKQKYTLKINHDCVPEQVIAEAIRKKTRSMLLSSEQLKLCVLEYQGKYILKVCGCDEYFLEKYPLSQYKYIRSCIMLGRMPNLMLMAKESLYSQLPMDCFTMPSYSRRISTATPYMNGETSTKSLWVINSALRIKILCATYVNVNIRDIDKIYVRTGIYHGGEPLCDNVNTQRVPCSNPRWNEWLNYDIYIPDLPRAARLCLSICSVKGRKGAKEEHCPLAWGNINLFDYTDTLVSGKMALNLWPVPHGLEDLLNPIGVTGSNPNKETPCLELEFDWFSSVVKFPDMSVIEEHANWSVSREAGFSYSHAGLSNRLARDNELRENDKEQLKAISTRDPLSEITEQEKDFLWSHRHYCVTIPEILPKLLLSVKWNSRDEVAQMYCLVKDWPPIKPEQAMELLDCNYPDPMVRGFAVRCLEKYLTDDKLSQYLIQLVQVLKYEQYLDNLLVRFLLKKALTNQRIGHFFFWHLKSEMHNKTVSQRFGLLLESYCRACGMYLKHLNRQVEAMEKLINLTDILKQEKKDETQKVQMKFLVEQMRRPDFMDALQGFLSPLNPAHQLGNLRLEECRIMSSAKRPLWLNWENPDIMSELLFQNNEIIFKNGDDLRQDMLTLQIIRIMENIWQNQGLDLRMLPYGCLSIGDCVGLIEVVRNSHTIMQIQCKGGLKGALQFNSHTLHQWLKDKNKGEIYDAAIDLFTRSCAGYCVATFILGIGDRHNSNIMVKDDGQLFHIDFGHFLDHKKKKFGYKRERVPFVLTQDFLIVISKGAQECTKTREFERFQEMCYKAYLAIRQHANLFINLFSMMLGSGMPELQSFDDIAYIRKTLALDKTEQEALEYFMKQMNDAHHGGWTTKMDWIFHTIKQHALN

[9] = biological target: Phosphatidylinositol 4,5-bisphosphate 3-kinase catalytic subunit gamma isoform (Homo sapiens, UniProt P48736); assay: Inhibition of PI3Kgamma (unknown origin) using PIP2 as substrate measured after 1 hr by ADP-glo plus luminescence assay
Sequence of Phosphatidylinositol 4,5-bisphosphate 3-kinase catalytic subunit gamma isoform (P48736 whole entry, canonical isoform): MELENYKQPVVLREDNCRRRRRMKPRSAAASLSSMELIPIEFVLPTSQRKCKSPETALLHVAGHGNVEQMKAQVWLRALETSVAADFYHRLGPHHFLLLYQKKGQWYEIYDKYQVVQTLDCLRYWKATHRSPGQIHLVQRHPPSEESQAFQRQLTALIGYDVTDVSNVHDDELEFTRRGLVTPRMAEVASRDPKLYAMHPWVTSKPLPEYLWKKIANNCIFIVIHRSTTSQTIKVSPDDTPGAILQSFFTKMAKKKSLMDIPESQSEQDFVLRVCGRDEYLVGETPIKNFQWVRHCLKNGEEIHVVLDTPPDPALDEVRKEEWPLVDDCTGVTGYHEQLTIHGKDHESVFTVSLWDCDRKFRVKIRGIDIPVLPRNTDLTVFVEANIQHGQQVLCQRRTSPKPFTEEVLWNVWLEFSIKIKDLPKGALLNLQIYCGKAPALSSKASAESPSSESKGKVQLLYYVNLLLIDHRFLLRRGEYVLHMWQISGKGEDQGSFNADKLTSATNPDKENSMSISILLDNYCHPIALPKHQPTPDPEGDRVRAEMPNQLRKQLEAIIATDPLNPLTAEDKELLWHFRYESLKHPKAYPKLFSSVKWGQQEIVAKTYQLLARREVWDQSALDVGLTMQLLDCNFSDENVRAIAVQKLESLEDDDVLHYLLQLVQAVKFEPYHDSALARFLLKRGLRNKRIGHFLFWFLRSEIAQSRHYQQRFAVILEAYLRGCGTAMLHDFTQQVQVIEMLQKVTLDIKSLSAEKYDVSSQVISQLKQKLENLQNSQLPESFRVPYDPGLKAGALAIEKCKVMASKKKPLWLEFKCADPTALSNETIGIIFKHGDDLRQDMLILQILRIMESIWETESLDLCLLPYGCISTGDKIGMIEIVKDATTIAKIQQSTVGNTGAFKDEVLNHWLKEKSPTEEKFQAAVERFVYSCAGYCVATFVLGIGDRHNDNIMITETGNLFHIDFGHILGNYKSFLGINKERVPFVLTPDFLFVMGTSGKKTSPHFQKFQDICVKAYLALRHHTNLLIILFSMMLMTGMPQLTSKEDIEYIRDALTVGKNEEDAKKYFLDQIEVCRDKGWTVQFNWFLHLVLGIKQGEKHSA

[10] = biological target: T1, Phosphatidylinositol 4,5-bisphosphate 3-kinase catalytic subunit delta isoform (Homo sapiens, UniProt O00329); assay: Inhibition of PI3Kdelta (unknown origin) using PIP2 as substrate measured after 2 hrs by ADP-glo plus luminescence assay
T1 sequence (O00329 whole entry): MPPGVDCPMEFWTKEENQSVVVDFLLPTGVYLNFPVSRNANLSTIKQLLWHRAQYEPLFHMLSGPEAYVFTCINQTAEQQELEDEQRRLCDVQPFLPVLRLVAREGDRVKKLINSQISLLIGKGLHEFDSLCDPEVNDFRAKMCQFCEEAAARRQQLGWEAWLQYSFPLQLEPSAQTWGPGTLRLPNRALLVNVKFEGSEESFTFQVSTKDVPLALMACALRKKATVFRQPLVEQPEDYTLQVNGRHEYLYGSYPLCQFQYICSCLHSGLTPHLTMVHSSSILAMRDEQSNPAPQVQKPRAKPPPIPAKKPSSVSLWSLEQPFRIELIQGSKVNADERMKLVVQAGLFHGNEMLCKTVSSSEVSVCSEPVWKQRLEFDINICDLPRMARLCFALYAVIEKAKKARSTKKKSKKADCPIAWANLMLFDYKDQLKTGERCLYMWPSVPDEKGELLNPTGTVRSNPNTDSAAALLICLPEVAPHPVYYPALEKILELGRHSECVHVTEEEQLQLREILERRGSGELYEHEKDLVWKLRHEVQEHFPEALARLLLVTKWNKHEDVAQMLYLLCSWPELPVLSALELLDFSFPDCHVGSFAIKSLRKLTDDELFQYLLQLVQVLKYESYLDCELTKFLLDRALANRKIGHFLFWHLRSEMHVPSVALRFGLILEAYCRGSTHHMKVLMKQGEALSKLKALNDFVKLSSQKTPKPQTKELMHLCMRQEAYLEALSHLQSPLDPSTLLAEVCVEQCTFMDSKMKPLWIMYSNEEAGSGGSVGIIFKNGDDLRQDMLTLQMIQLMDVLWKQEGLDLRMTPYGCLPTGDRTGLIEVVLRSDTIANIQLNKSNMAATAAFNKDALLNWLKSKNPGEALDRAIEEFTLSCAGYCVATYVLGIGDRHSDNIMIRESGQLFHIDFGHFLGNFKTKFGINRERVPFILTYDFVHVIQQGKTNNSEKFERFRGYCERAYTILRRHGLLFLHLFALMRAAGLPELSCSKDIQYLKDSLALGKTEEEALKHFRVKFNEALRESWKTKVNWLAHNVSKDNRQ

MDA-MB-468 [11] = assay: Antitumor activity against human MDA-MB-468 cells xenografted in BALB/c mouse assessed as tumor growth inhibition at 20 mg/kg, ip once daily administered for 32 days relative to control; assay type: functional; conditions: MDA-MB-468, ip, 768 h, time 32 day, read-out: TGI
[12] = biological target: RAC-alpha serine/threonine-protein kinase (Homo sapiens, UniProt P31749); assay: Inhibition of AKT (unknown origin)
[13] = biological target: Voltage-gated inwardly rectifying potassium channel KCNH2 (Homo sapiens, UniProt Q12809); assay: Inhibition of human ERG
MDA-MB-468 [14] = assay: Antitumor activity against human MDA-MB-468 cells xenografted in BALB/c mouse assessed as tumor growth inhibition at 27.5 mg/kg, ip administered for 32 days along with olaparib relative to control; assay type: functional; conditions: MDA-MB-468, ip, 768 h, time 32 day, read-out: TGI
MDA-MB-468 [15] = assay: Antitumor activity against human MDA-MB-468 cells xenografted in BALB/c mouse assessed as tumor growth inhibition at 27.5 mg/kg, ip once daily administered for 32 days relative to control; assay type: functional; conditions: MDA-MB-468, ip, 768 h, time 32 day, read-out: TGI

IC50 (SW-620) [µM]	IC50 (MDA-MB-231) [µM]	IC50 (HCC1937) [µM]	IC50 (MDA-MB-468 [1]) [nM]	IC50 (HCT-116) [nM]	IC50 [7] [nM]	IC50 [8] [nM]	Structure (SMILES)	further results
> 10	> 10	> 10	> 10000	> 10000			O=C(c1cc(Cc2n[nH]c(=O)c3ccccc23)ccc1F)N1CCN(C(=O)C2CC2)CC1 [OLAPARIB]	TGI (MDA-MB-468 [2]): 27.91%; TGI (MDA-MB-468 [3]): 45.93%
					2.97	0.51	NC(=O)c1cccc2cc(C(=O)N3CCN(Cc4cc5nc(-c6cnc(N)nc6)nc(N6CCOCC6)c5o4)CC3)oc12	IC50 [4]: 1.34 nM; IC50 [5]: 216 nM; IC50 [6]: 69 nM; IC50 [9]: 141 nM; IC50 [10]: 4.3 nM
7.23	3.6	1.08	2650	690	197	7	Cc1c(CN2CCN(C(=O)c3cc(Cc4n[nH]c(=O)c5ccccc45)ccc3F)CC2)sc2c(N3CCOCC3)nc(-c3cnc(N)cc3C(F)(F)F)nc12	
> 10	> 10	5.38	> 10000	5840	16.7	1380	Cc1c(CN2CCN(C(=O)c3cc4cccc(C(N)=O)c4o3)CC2)sc2c(N3CCOCC3)nc(-c3ccc(F)c(N)c3)nc12	
					8.8	3.7	Nc1ncc(-c2nc(N3CCOCC3)c3sc(CN4CCN(C(=O)c5cc(Cc6n[nH]c(=O)c7ccccc67)ccc5F)CC4)cc3n2)cn1	
7.98	7.17	4.58	9260	3970	22.6	319	Cc1c(CN2CCN(C(=O)c3cc4cccc(C(N)=O)c4o3)CC2)sc2c(N3CCOCC3)nc(-c3ccc(N)cc3)nc12	
0.88	0.92	0.29	1020	280	0.91	1.5	Cc1c(CN2CCN(C(=O)c3cc4cccc(C(N)=O)c4o3)CC2)sc2c(N3CCOCC3)nc(-c3cnc(N)nc3)nc12	IC50 [4]: 0.92 nM; IC50 [5]: 12 nM; IC50 [6]: 43 nM; inhibition in vivo at 20 mg/kg (MDA-MB-468 [11]): 48.8%; IC50 [9]: 73 nM; IC50 [10]: 2.7 nM; IC50 [12]: > 100 µM; IC50 [13]: > 30 µM
					1.98	0.6	NC(=O)c1cccc2cc(C(=O)N3CCN(Cc4cc5nc(-c6cnc(N)nc6)nc(N6CCOCC6)c5s4)CC3)oc12	IC50 [4]: 1.19 nM; IC50 [5]: 23 nM; IC50 [6]: 11 nM; IC50 [9]: 31 nM; IC50 [10]: 1.8 nM
3.32	3.3	0.8	> 10000	890	42.4	168	Cc1c(CN2CCN(C(=O)c3cc4cccc(C(N)=O)c4o3)CC2)sc2c(N3CCOCC3)nc(-c3cccc4[nH]ncc34)nc12	
					31.7		Cc1c(CN2CCN(C(=O)c3cc4cccc(C(N)=O)c4o3)CC2)sc2c(N3CCOCC3)nc(-c3ccc4[nH]ccc4c3)nc12	
> 10	> 10	3.57	> 10000	5070	91.5	3810	Cc1c(CN2CCN(C(=O)c3cc4cccc(C(N)=O)c4o3)CC2)sc2c(N3CCOCC3)nc(-c3ccc4cn[nH]c4c3)nc12	
3.37	3.17	0.5	1630	690	101	2.3	Cc1c(CN2CCN(C(=O)c3cc4cccc(C(N)=O)c4o3)CC2)sc2c(N3CCOCC3)nc(-c3cnc(N)cc3C(F)(F)F)nc12	
1.72	2.46	3.21	1670	1110			Cc1c(CN2CCN(C(=O)[C@H](C)O)CC2)sc2c(N3CCOCC3)nc(-c3cnc(N)nc3)nc12 [APITOLISIB]	inhibition in vivo at 27.5 mg/kg (MDA-MB-468 [14]): 45.9%; inhibition in vivo at 27.5 mg/kg (MDA-MB-468 [15]): 38%
> 10	> 10	3.86	> 10000	2320	9.18	1180	Cc1c(CN2CCN(C(=O)c3cc4cccc(C(N)=O)c4o3)CC2)sc2c(N3CCOCC3)nc(-c3ccc(N)c(F)c3)nc12	
0.92	1.3	0.41	1080	310	1.5	2	Cc1c(CN2CCN(C(=O)c3cc(Cc4n[nH]c(=O)c5ccccc45)ccc3F)CC2)sc2c(N3CCOCC3)nc(-c3cnc(N)nc3)nc12	IC50 [4]: 0.89 nM; IC50 [5]: 50 nM; IC50 [6]: 53 nM; inhibition in vivo at 20 mg/kg (MDA-MB-468 [11]): 56.4%; IC50 [9]: 25 nM; IC50 [10]: 6.8 nM; IC50 [12]: > 100 µM
					1.9	14	Cc1c(CN2CCN(C(=O)c3cc4cccc(C(N)=O)c4o3)CC2)sc2c(N3CCOCC3)nc(-c3ccc(N)nc3)nc12	
					40.1		Cc1c(CN2CCN(C(=O)c3cc4cccc(C(N)=O)c4o3)CC2)sc2c(N3CCOCC3)nc(-c3ccc(N)cc3F)nc12	
					140	1140	Cc1c(CN2CCN(C(=O)c3cc4cccc(C(N)=O)c4o3)CC2)sc2c(N3CCOCC3)nc(-c3cccc4[nH]ccc34)nc12	
